Laboratory results published in patent US11952344B2, “Heterocyclic compound and use thereof” (TAKEDA PHARMACEUTICAL COMPANY LIMITED, priority 2019, dated 2024).

Molecular target: T1, Human NMDA (NR1/NR2B) Receptor (Homo sapiens, UniProt Q13224)
T1 construct: host or cells: HEK293
Assay: NR2B Ca2+ influx assay
Format: cell-based
Conditions: 10 μM compound; HEK293 cells expressing GRIN1 and GRIN2B; glutamic acid/glycine-induced Ca2+ influx, Fluo-4 fluorescence; read-out: inhibitory rate (10 μM compound concentration)
Excerpt: Experimental Example 1 NR2B Ca^2+ Influx Assay
To confirm the “antagonistic action on an NMDA receptor containing the NR2B subunit” of the compound of the present invention, human embryonic kidney cell expressing the “NMDA receptor composed of four subunits including 2 sets of heterodimers of NR1 and NR2B”, specifically HEK293 cell expressing human glutamate ionotropic receptor NMDA type subunit 1 (GRIN1) and human glutamate ionotropic receptor NMDA type subunit 2B (GRIN2B), was used and the activation suppressive effect (inhibitory activity) on the receptors by the compound of the present invention was measured.
HEK293 cells that express GRIN1 and GRIN2B were purchased from ChanTest (Human NMDA (NR1/NR2B) Receptor-expressing, stable replicating cell line (HEK293) catalog No. CT6121).
As an index of the NMDA receptor activation, intracellular calcium ion (Ca^2+) influx caused by the binding of glycine and glutamic acid with NR1 and NR2B, respectively, was used.
HEK293 cells that express GRIN1 and GRIN2B were cultured in a cell culture flask in DMEM/F-12 (COSMO BIO, 10-092-CM) medium added with 10% FBS (fetal bovine serum, AusGene), 100 units/mL penicillin, 100 μg/mL streptomycin, 500 μg/mL neomycin, 100 μg/mL Zeocin (registered trade mark, Invitrogen), 5 μg/mL Blasticidin, in an incubator (37° C., 5% CO2).
The cells were detached from flask with trypsin the day before the assay, suspended in a seeding medium (DMEM (Invitrogen, 31053) added with 10% FBS, 100 units/mL penicillin, 100 μg/mL streptomycin) at 8×10^5 cells/mL, seeded by 25 μL/well in a 384-well plate (Falcon, 356663) at 20000 cells/well, and cultured overnight in an incubator. On the day of the assay, tetracycline (Wako Pure Chemical Industries, Ltd., 209-16561) was diluted with the seeding medium at 2 μg/mL, added at 25 μL/well to the plate seeded with the cells, and cultured for 2 hr in an incubator. Thereafter, the medium was removed, and the cells were washed with 50 μL/well assay buffer (137 mM NaCl, 4 mM KCl, 1.8 mM CaCl2, 10 mM HEPES (pH 7.2), 10 mM Glucose, 0.1% BSA). Then, a loading buffer (assay buffer added with 2.5 μM Fluo-4AM, 2 mM Amaranth, 1 mM Tartrazine) was added at 25 μL/well, and incubation was performed in the incubator for 30 min, and at room temperature for 15 min. A solution (25 μL/well) of the Example compound diluted with the above-mentioned assay buffer at 30 μM (final concentration 10 μM) was added, and the cells were stood for 15 min at room temperature. Using FDSS7000EX/μCELL (Hamamatsu Photonics K.K.), 25 μL/well of an assay buffer containing 30 μM glutamic acid, 30 μM glycine was added, and the fluorescence signal at wavelength of Excitation 480 nm, Emission 540 nm was measured every 3 seconds for 5 min. The inhibitory activity was calculated as a relative activity value (inhibitory rate) that inhibits 100% of the cumulative value of the fluorescence value of a well added with an assay buffer free of glutamic acid, glycine, relative to the cumulative value of the fluorescence value of each well.

T1 sequence (Q13224 27-1484, other chains not shown): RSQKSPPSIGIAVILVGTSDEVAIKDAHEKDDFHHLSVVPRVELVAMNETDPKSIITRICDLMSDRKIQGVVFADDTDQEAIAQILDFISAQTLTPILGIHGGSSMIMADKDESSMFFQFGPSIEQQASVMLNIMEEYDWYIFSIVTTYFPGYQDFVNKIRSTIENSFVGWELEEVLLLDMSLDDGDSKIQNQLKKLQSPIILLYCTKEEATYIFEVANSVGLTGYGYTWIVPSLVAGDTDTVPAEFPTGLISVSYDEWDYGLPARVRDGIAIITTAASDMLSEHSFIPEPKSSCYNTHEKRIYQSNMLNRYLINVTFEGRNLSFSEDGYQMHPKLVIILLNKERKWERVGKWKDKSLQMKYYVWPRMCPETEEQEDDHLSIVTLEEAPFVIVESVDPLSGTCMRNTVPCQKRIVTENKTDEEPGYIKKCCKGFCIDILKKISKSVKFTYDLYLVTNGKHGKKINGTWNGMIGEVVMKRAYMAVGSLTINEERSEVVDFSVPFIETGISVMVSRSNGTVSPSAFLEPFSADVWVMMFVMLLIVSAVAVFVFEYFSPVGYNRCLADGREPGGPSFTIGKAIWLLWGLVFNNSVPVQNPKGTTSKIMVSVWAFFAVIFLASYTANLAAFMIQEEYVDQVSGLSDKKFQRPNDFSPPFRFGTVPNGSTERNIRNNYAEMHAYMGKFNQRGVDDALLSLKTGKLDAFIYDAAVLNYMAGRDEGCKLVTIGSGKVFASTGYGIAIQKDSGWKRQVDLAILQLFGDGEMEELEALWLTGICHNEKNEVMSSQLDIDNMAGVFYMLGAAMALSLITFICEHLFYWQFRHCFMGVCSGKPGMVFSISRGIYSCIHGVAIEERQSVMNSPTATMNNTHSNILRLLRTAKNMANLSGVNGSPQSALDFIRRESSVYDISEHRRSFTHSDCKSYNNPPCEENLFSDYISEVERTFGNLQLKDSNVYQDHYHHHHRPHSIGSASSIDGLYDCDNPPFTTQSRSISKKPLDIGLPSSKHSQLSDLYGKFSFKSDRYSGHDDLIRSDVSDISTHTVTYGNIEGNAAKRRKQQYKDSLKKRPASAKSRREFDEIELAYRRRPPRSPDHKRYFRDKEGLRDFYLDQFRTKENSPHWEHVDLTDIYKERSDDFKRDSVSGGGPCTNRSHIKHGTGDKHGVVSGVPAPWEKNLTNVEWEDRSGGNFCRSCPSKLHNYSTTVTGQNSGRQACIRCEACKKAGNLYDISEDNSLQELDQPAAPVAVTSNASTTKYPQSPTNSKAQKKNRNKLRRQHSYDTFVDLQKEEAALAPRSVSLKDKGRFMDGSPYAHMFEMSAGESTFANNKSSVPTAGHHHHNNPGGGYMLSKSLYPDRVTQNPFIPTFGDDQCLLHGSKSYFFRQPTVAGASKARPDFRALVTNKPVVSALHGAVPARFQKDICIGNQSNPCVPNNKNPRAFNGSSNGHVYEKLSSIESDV

In order of falling inhibition at 10 µM:
1. Cc1c(Cl)cncc1CNC(=O)c1cnc(OC(F)F)c(F)c1 [Example 47, N-[(5-chloro-4-methylpyridin-3-yl)methyl]-6-(difluoromethoxy)-5-fluoropyridine-3-carboxamide]  97%
2. O=C(NCc1cnccc1C1CC1)c1cnc(OC(F)F)c(F)c1 [Example 15, N-[(4-cyclopropylpyridin-3-yl)methyl]-6-(difluoromethoxy)-5-fluoropyridine-3-carboxamide]  96%
3. CCOc1ccncc1CNC(=O)c1cnc(OC(F)F)c(F)c1 [Example 10, 6-(difluoromethoxy)-N-[(4-ethoxypyridin-3-yl)methyl]-5-fluoropyridine-3-carboxamide]  96%
4. Cc1ccncc1CNC(=O)c1cnc(OC(F)F)c(Cl)c1 [Example 27, 5-chloro-6-(difluoromethoxy)-N-[(4-methylpyridin-3-yl)methyl]pyridine-3-carboxamide]  95%
5. Cc1c(F)cncc1CNC(=O)c1cnc(C2CC2(F)F)c(Cl)c1 (stereo not shown) [Example 104, 5-chloro-6-(2,2-difluorocyclopropyl)-N-[(5-fluoro-4-methylpyridin-3-yl)methyl]pyridine-3-carboxamide]  95%
6. O=C(NCc1cncc(Br)c1)c1ccc(OC(F)(F)F)cc1 [Example 3, N-[(5-bromopyridin-3-yl)methyl]-4-(trifluoromethoxy)benzamide]  95%
7. Cc1c(F)cncc1CNC(=O)c1cnc(C(C)(F)F)c(Cl)c1 [Example 98, 5-chloro-6-(1,1-difluoroethyl)-N-[(5-fluoro-4-methylpyridin-3-yl)methyl]pyridine-3-carboxamide]  95%
8. Cc1ccncc1CNC(=O)c1cnc(C2CC2)c(F)c1 [Example 46, 6-cyclopropyl-5-fluoro-N-[(4-methylpyridin-3-yl)methyl]pyridine-3-carboxamide]  95%
9. CCOc1c(F)cncc1CNC(=O)c1cnc(OC(F)F)c(F)c1 [Example 61, 6-(difluoromethoxy)-N-[(4-ethoxy-5-fluoropyridin-3-yl)methyl]-5-fluoropyridine-3-carboxamide]  95%
10. CCc1ccncc1CNC(=O)c1cnc(OC(F)F)c(F)c1 [Example 38, 6-(difluoromethoxy)-N-[(4-ethylpyridin-3-yl)methyl]-5-fluoropyridine-3-carboxamide]  94%
11. O=C(NCc1cnccc1OC(F)F)c1cnc(OC(F)F)c(Cl)c1 [Example 111, 5-chloro-6-(difluoromethoxy)-N-[(4-(difluoromethoxy)pyridin-3-yl)methyl]pyridine-3-carboxamide]  94%
12. Cc1c(F)cncc1CNC(=O)c1cnc(C2CC2)c(F)c1 [Example 80, 6-cyclopropyl-5-fluoro-N-[(5-fluoro-4-methylpyridin-3-yl)methyl]pyridine-3-carboxamide]  94%
13. CCOc1ncc(C(=O)NCc2cnccc2C)cc1Cl [Example 65, 5-chloro-6-ethoxy-N-[(4-methylpyridin-3-yl)methyl]pyridine-3-carboxamide]  93%
14. Cc1ccncc1CNC(=O)c1cnc(C2CC2(F)F)c(Cl)c1 (stereo not shown) [Example 102, 5-chloro-6-(2,2-difluorocyclopropyl)-N-[(4-methylpyridin-3-yl)methyl]pyridine-3-carboxamide]  93%
15. Cc1ccncc1CNC(=O)c1ccc(C(F)F)c(Cl)c1 [Example 59, 3-chloro-4-(difluoromethyl)-N-[(4-methylpyridin-3-yl)methyl]benzamide]  93%
16. Cc1c(F)cncc1CNC(=O)c1cnc(OC(F)F)c(Cl)c1 [Example 73, 5-chloro-6-(difluoromethoxy)-N-[(5-fluoro-4-methylpyridin-3-yl)methyl]pyridine-3-carboxamide]  93%
17. CCOc1ncncc1CNC(=O)c1cc(F)c(OC(F)F)c(F)c1 [Example 87, 4-(difluoromethoxy)-N-[(4-ethoxypyrimidin-5-yl)methyl]-3,5-difluorobenzamide]  93%
18. O=C(NCc1cncc(Cl)c1)c1ccc(OC(F)(F)F)cc1 [Example 2, N-[(5-chloropyridin-3-yl)methyl]-4-(trifluoromethoxy)benzamide]  93%
19. Cc1ccncc1CNC(=O)c1cnc(C(C)(F)F)c(Cl)c1 [Example 97, 5-chloro-6-(1,1-difluoroethyl)-N-[(4-methylpyridin-3-yl)methyl]pyridine-3-carboxamide]  92%
20. COc1c(F)cc(C(=O)NCc2cncc(F)c2C)cc1F [Example 67, 3,5-difluoro-N-[(5-fluoro-4-methylpyridin-3-yl)methyl]-4-methoxybenzamide]  92%
21. CC(F)(F)c1ncncc1CNC(=O)c1cnc(OC(F)F)c(F)c1 [Example 29, N-{[4-(1,1-difluoroethyl)-pyrimidin-5-yl]methyl}-6-(difluoromethoxy)-5-fluoropyridine-3-carboxamide]  92%
22. O=C(NCc1cnccc1C(F)F)c1cnc(OC(F)F)c(F)c1 [Example 70, 6-(difluoromethoxy)-N-{[4-(difluoromethyl)pyridin-3-yl]methyl)-5-fluoropyridine-3-carboxamide]  91%
23. COc1ncncc1CNC(=O)c1cc(F)c(OC)c(Cl)c1 [Example 84, 3-chloro-5-fluoro-4-methoxy-N-[(4-methoxypyrimidin-5-yl)methyl]benzainide]  91%
24. CC(F)(F)c1ncc(C(=O)NCc2cncnc2OC2CC2)cc1F [Example 91, N-{[4-(cyclopropyloxy)-pyrimidin-5-yl]methyl}-6-(1,1-difluoroethyl)-5-fluoropyridine-3-carboxamide]  91%
25. CC(F)(F)c1ncc(C(=O)NCc2cncnc2OC2CC2)cc1Cl [Example 95, 5-chloro-N-{[4-(cyclopropyloxy)pyrimidin-5-yl]methyl}-6-(1,1-difluoroethyl)pyridine-3-carboxamide]  90%
26. Cc1ccncc1CNC(=O)c1cnc(C2CC2(F)F)c(F)c1 (stereo not shown) [Example 101, 6-(2,2-difluorocyclopropyl)-5-fluoro-N-[(4-methylpyridin-3-yl)methyl]pyridine-3-carboxamide]  90%
27. Cc1ccncc1CNC(=O)c1ccc(OC(F)F)cc1 [Example 50, 4-(difluoromethoxy)-N-[(4-methylpyridin-3-yl)methyl]benzamide]  90%
28. COc1ncncc1CNC(=O)c1cnc(C2CC2)c(F)c1 [Example 82, 6-cyclopropyl-5-fluoro-N-[(4-methoxypyrimidin-5-yl)methyl]pyridine-3-carboxamide]  89%
29. O=C(NCc1cnccc1OC(F)F)c1cnc(OC(F)F)c(F)c1 [Example 99, 6-(difluoromethoxy)-N-{[4-(difluoromethoxy)pyridin-3-yl]methyl}-5-fluoropyridine-3-carboxamide]  89%
30. COc1ncncc1CNC(=O)c1ccc(OC(F)F)cc1 [Example 25, 4-(difluoromethoxy)-N-[(4-methoxypyrimidin-5-yl)methyl]benzamide]  88%
31. Cc1ccncc1CNC(=O)c1ccc(OC(F)F)nc1 [Example 51, 6-(difluoromethoxy)-N-[(4-methylpyridin-3-yl)methyl]pyridine-3-carboxamide]  87%
